Test results from patent US7034050B2, “Pseudopeptides growth hormone secretagogues” (priority 2004, dated 2006).

How the values were obtained:
[1] = system: rat epididynial adipocytes; experiment: binding affinity to rat epididynial adipocytes; settings: compared with rat ghrelin, MK 0677 and hexarelin
[2] = molecular target: T1, human pituitary gland tissues (Homo sapiens, UniProt Q92847); experiment: binding affinity to human pituitary gland tissues; settings: compared with ghrelin, hexarelin, MK 0677 and JMV 1843
T1 construct: from tissue; host or cells: human pituitary gland tissue
T1 sequence (Q92847 whole entry): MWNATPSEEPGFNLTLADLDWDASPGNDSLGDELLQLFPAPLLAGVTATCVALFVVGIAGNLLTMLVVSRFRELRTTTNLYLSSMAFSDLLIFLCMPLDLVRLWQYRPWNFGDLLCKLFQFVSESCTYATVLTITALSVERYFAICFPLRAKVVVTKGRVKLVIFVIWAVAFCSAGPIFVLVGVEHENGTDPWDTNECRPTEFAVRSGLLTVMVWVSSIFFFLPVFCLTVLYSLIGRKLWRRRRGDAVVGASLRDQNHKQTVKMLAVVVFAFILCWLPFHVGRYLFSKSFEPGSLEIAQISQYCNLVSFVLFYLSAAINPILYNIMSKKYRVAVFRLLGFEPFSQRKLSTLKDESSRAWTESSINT

[3] = system: GH release; experiment: stimulation of GH release in vitro; type: cell-based
[4] = system: GH release; experiment: GH release in vivo (neonatal rats injected subcutaneously); design: species or system rat

Row | Substance | binding affinity to rat epididynial adipocytes [1] | binding affinity to human pituitary gland tissues [2] | potency in stimulating the GH release in vitro [3] | potency in stimulating the GH release in vivo [4] | amount of growth hormone released ([4]; neonatal rats, subcutaneous injection, compared with MK 0677 and hexarelin)
1 | Aib-D-Trp-D-Trpψ[CH2—NH—O]Gly-NH2 [IIa] | comparable to that of rat ghrelin and superior to that of MK 0677 and hexarelin | comparable to that of the natural ligand ghrelin and superior to the binding affinity of the synthetic GH secretagogues | remarkably potent | remarkably potent | exceeded the amount released when the standard GH secretagogues MK 0677 and hexarelin were administered
2 | Aib-D-Trp-D-Trpψ[CH═N˜O]Gly-NH2 [Ia] | comparable to that of rat ghrelin and superior to that of MK 0677 and hexarelin | comparable to that of the natural ligand ghrelin and superior to the binding affinity of the synthetic GH secretagogues | remarkably potent | remarkably potent | –
